For orientation: IC50 means the concentration that inhibits the measured activity by half.

Sequence of CBP (Q92793 1085-1192): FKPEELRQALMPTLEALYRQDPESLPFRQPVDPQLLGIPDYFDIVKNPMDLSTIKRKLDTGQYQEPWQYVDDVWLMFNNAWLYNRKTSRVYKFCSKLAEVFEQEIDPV

This experiment addresses CBP (Homo sapiens (Human), UniProt Q92793). Nature of the experiment: HTRF biochemical assay for CBP activity (TR-FRET, bromodomain). The experiment is classed as binding. The following applies: geometric mean, 10-point 3-fold dilution 33 μM to 1.7 nM, read-out: BROMO IC50 TRF TB CBP (μM gmean). The method in brief:
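IC50 derives from a 4-parameter logistic fit of % inhibition, calculated from the 520/490 nm TR-FRET ratio against DMSO and no-enzyme controls. Final compound levels spanned 33 μM to 1.7 nM (10 points, 3-fold), with CBP and peptide ligand in Hepes pH 7.5/GSH/BGG/BSA/Triton buffer, incubated at room temperature for varying times.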
For orientation: TR-FRET usually uses a lanthanide donor and a delayed reading to cut background.
With `COC(=O)N1CCc2ccc3c(nc(-c4cccc(CC(=O)O)c4)n3[C@@H](C)Cc3cc(F)cc(F)c3)c2C1` [Compound 116], the IC50 lay in the range of 0.001 to 0.01 µM.

Regarding `COC(=O)N1CCc2ccc3c(nc(N4CCC(C(=O)O)CC4)n3[C@H](C)Cc3cc(F)cc(F)c3)c2C1` [Compound 308], the IC50 lay in the range of 0.1 to 1 µM.

For the compound “(2R)-3-[2-cyclohexyl-8-(methoxycarbonyl)-3H,6H,7H,8H,9H-imidazo[4,5-h]isoquinolin-3-yl]-2-(5-fluoro-2-methoxyphenyl)propanoic acid [Compound 241]”, the IC50 was in the range of 0.01 to 0.1 µM.

`COC(=O)N1CCc2ccc3c(nc([C@H]4CC[C@H](C(=O)O)CC4)n3[C@H](C)Cc3ccccc3F)c2C1` [Compound 51]: the half-inhibitory concentration (IC50) lay in the range of 0.001 to 0.01 µM.

As to `COC(=O)N1CCc2ccc3c(nc(C4CCN(C(C)=O)CC4)n3[C@@H](C)Cc3ccccc3)c2C1` [Compound 323], the IC50 is 0.1 to 1 µM.

Regarding `COC(=O)N1CCc2ccc3c(nc([C@H]4CC[C@H](C(=O)O)CC4)n3[C@@H](C)Cn3cc(Cl)cn3)c2C1` [Compound 85], the IC50 is 0.001 to 0.01 µM.

Take `COC(=O)N1CCc2ccc3c(nc([C@H]4CC[C@](C)(C(=O)O)CC4)n3[C@@H](CO)Cc3ccccc3)c2C1` [Compound 270]: the IC50 lay within 0.01 to 0.1 µM.

As for `COC(=O)N1CCc2ccc3c(nc(C4CCCCC4)n3[C@@H](C)CC3CCCC[C@@H]3C(=O)O)c2C1` (stereo partly shown) [Compound 39], the half-inhibitory concentration (IC50) was in the range of 0.001 to 0.01 µM.

In the case of `COC(=O)N1CCc2ccc3c(nc(C4CCCCC4)n3[C@@H](C)C[C@@H]3CCCC[C@H]3C(=O)O)c2C1` [Compound 210], the IC50 lay within 0.01 to 0.1 µM.

Regarding `COC(=O)N1CCc2ccc3c(nc(C4CCCCC4)n3C[C@H](C(=O)NS(C)(=O)=O)c3ccccc3)c2C1` (single isomer, unassigned) [Compound 22], the IC50 is 0.001 to 0.01 µM.

As for `COC(=O)N1CCc2ccc3c(nc([C@H]4CC[C@H](C(=O)O)CC4)n3[C@@H](C)C[C@@H]3CCCOC3)c2C1` [Compound 183], the IC50 lay in the range of 0.01 to 0.1 µM.

Regarding `COC(=O)N1CCc2ccc3c(nc([C@H]4CC[C@H](C(=O)O)CC4)n3[C@@H](CO)Cc3ccccc3)c2C1` [Compound 151], the 50% inhibitory concentration (IC50) fell in the range of 0.001 to 0.01 µM.

Consider `COC(=O)N1CCc2ccc3c(nc(C4CCCCC4)n3CC[C@H]3CC[C@H](C(=O)O)CC3)c2C1` [Compound 243], for which the IC50 was in the range of 0.01 to 0.1 µM.

With `COC(=O)N1CCc2ccc3c(nc([C@@H]4CCC[C@@H](C(=O)O)C4)n3[C@@H](C)Cc3ccc(F)c(F)c3)c2C1` [Compound 143], the IC50 lay within 0.001 to 0.01 µM.

Regarding `COC(=O)N1CCc2ccc3c(nc(-c4cccc(CC(=O)O)c4)n3[C@H](C)Cc3cc(F)cc(F)c3)c2C1` [Compound 322], the IC50 was 0.1 to 1 µM.

Turning to `COC(=O)N1CCc2c(Cl)cc3c(nc(C4CCCCC4)n3C[C@H](C(=O)O)c3ccccc3)c2C1` [Compound 223], the IC50 lay in the range of 0.01 to 0.1 µM.

In the case of `COC(=O)N1CCc2ccc3c(nc([C@H]4CC[C@H](C(=O)O)CC4)n3[C@H](C)C(F)(F)c3ccccc3)c2C1` [Compound 125], the IC50 fell in the range of 0.001 to 0.01 µM.

On to `COC(=O)N1CCc2ccc3c(nc([C@H]4CC[C@H](C(=O)O)CC4)n3[C@H](C)Cc3ccccc3)c2C1` [Compound 312], for which the IC50 fell in the range of 0.1 to 1 µM.

As for `COC(=O)N1CCc2ccc3c(nc([C@H]4CC[C@H](C(=O)O)CC4)n3[C@H](C)CC3CCOCC3)c2C1` [Compound 265], the concentration for half-maximal inhibition (IC50) fell in the range of 0.01 to 0.1 µM.

Turning to `COC(=O)N1CCc2ccc3c(nc(C4CCCCC4)n3C[C@H](C(=O)O)c3cccc(F)c3F)c2C1` (single isomer, unassigned) [Compound 26], the IC50 fell in the range of 0.001 to 0.01 µM.

For the compound `C[C@H](Cc1ccccc1)n1c2ccc3c(c2nc1[C@H]1CC[C@H](C(=O)O)CC1)CN(C(=O)C1CC1)CC3` [Compound 244], the IC50 is 0.01 to 0.1 µM.

As for `COC(=O)N1CCc2c(C#N)cc3c(nc([C@H]4CC[C@H](C(=O)O)CC4)n3[C@@H](C)Cc3ccccc3)c2C1` [Compound 52], the half-inhibitory concentration (IC50) was 0.001 to 0.01 µM.

As for `COC(=O)N1CCc2ccc3c(nc(C4CCCCC4)n3C[C@@H](CC(=O)O)c3cc(F)cc(F)c3)c2C1` [Compound 76], the IC50 lay in the range of 0.001 to 0.01 µM.

As to `COC(=O)N1CCc2ccc3c(nc([C@@H]4CCC[C@H](C(=O)O)C4)n3[C@@H](C)Cc3ccccc3)c2C1` (single isomer, unassigned) [Compound 203], the IC50 fell in the range of 0.01 to 0.1 µM.

On to `COC(=O)N1CCc2ccc3c(nc([C@H]4CC[C@H](C(=O)O)CC4)n3[C@H](C)Cn3ncc4ccccc43)c2C1` [Compound 311], for which the concentration for half-maximal inhibition (IC50) fell in the range of 0.1 to 1 µM.

As for `COC(=O)N1CCc2ccc3c(nc(N4CCC[C@H](C(=O)O)C4)n3[C@@H](C)Cc3ccccc3)c2C1` [Compound 161], the IC50 was 0.001 to 0.01 µM.

As for `COC(=O)N1CCc2ccc3c(nc([C@H]4CCC[C@H](C(=O)O)C4)n3[C@@H](C)Cc3ccccc3)c2C1` [Compound 261], the IC50 fell in the range of 0.01 to 0.1 µM.

Regarding `COC(=O)N1CCc2ccc3c(nc([C@H]4CC[C@H](C(=O)O)CC4)n3C[C@@H]3CCc4ccccc4C3)c2C1` [Compound 211], the IC50 was in the range of 0.01 to 0.1 µM.

As to `COC(=O)N1CCc2ccc3c(nc([C@@H]4CCC[C@@H](C(=O)O)C4)n3Cc3cccc(OC)n3)c2C1` [Compound 272], the IC50 was 0.01 to 0.1 µM.

Regarding `COC(=O)N1CCc2ccc3c(nc(N4CCOCC4)n3[C@@H](C)Cc3cccc(C(=O)O)c3)c2C1` [Compound 182], the half-inhibitory concentration (IC50) fell in the range of 0.01 to 0.1 µM.

Turning to `COC(=O)N1CCc2ccc3c(nc([C@@H]4CCCOC4)n3C[C@H](C(=O)O)c3ccccc3)c2C1` [Compound 257], the IC50 was in the range of 0.01 to 0.1 µM.

In the case of `COC(=O)N1CCc2ccc3c(nc(-c4ccc(C(=O)O)cc4)n3[C@@H](C)Cc3ccccc3)c2C1` [Compound 77], the IC50 lay within 0.001 to 0.01 µM.

`COC(=O)N1CCc2ccc3c(nc(N4CCC(C(=O)O)CC4)n3[C@H](C)Cn3cc(C(F)(F)F)cn3)c2C1` [Compound 285]: the 50% inhibitory concentration (IC50) was in the range of 0.01 to 0.1 µM.

Consider `COC(=O)N1CCc2ccc3c(nc([C@H]4CC[C@H](C(=O)O)CC4)n3[C@H](C)Cc3cccnc3)c2C1` [Compound 111], for which the IC50 was in the range of 0.001 to 0.01 µM.

For the compound `COC(=O)N1CCc2ccc3c(nc(C4CCCCC4)n3C[C@@H](C(=O)O)c3cc(F)c(Cl)cc3OC)c2C1` (single isomer, unassigned) [Compound 32], the IC50 was 0.001 to 0.01 µM.

For `COC(=O)N1CCc2ccc3c(nc(-c4ccc(C(=O)O)c(OC)c4)n3[C@@H](C)Cc3ccccc3)c2C1` [Compound 208], the half-inhibitory concentration (IC50) lay in the range of 0.01 to 0.1 µM.

Take `COC(=O)N1CCc2ccc3c(nc([C@H]4CC[C@H](C(=O)O)CC4)n3[C@@H](C)CC3CCCCC3)c2C1` [Compound 200]: the IC50 lay in the range of 0.01 to 0.1 µM.

For `COC(=O)N1CCc2c(Cl)cc3c(nc([C@H]4CC[C@H](C(=O)O)CC4)n3[C@H](C)Cc3ccccc3)c2C1` [Compound 305], the IC50 is 0.1 to 1 µM.

Consider `COC(=O)N1CCc2ccc3c(nc(C4CCCC4)n3C[C@@H](CC(=O)O)c3ccccc3)c2C1` (single isomer, unassigned) [Compound 34], for which the IC50 was 0.001 to 0.01 µM.

With `COC(=O)N1CCc2ccc3c(nc(C45CC(C4)C5)n3C[C@H](C(=O)O)c3ccccc3)c2C1` [Compound 128], the IC50 lay within 0.001 to 0.01 µM.

In the case of `COC(=O)N1CCc2ccc3c(nc(N4CCC[C@H](C(=O)O)C4)n3[C@H](C)Cc3ccccc3)c2C1` [Compound 339], the 50% inhibitory concentration (IC50) lay within 0.1 to 1 µM.

With `COC(=O)N1CCc2ccc3c(nc(C4CCCCC4)n3[C@H](C)C[C@H]3CC[C@H](C(=O)O)CC3)c2C1` [Compound 237], the IC50 was 0.01 to 0.1 µM.

On to `COC(=O)N1CCc2ccc3c(nc(N4CCC(C(=O)CO)CC4)n3[C@H](C)Cc3ccccc3)c2C1` [Compound 313], for which the half-maximal inhibitory concentration (IC50) fell in the range of 0.1 to 1 µM.

Take `COC(=O)N1CCc2ccc3c(nc(-c4cccc(CC(=O)O)c4)n3[C@@H](C)Cc3ccccc3)c2C1` [Compound 101]: the IC50 was 0.001 to 0.01 µM.

With `COC(=O)N1CCc2ccc3c(nc([C@H]4C[C@@H](C(=O)O)C4)n3[C@@H](C)Cc3ccccc3C)c2C1` [Compound 130], the 50% inhibitory concentration (IC50) lay within 0.001 to 0.01 µM.

With `COC(=O)N1CCc2c([C@H]3CCOC3)cc3c(nc(C4CCC(C(=O)O)CC4)n3[C@@H](C)Cc3ccccc3)c2C1` (stereo partly shown) [Compound 256], the IC50 was in the range of 0.01 to 0.1 µM.

Turning to `COC(=O)N1CCc2ccc3c(nc([C@H]4CC[C@H](C(=O)O)CC4)n3[C@H](C)C[C@H]3CC[C@H](OC(F)(F)F)CC3)c2C1` [Compound 317], the half-inhibitory concentration (IC50) is 0.1 to 1 µM.

As for `COC(=O)N1CCc2ccc3c(nc(C4CCCCC4)n3C[C@H](C(=O)O)c3ccc(F)c(OC)c3)c2C1` [Compound 9], the concentration for half-maximal inhibition (IC50) was 0.001 to 0.01 µM.

For the compound `COC(=O)N1CCc2ccc3c(nc(C4CCN(S(C)(=O)=O)CC4)n3[C@H](C)Cc3cccc(C(=O)O)c3)c2C1` [Compound 331], the half-maximal inhibitory concentration (IC50) lay within 0.1 to 1 µM.

Turning to `COC(=O)N1CCc2ccc3c(nc(N4CCN(C(=O)CO)CC4)n3[C@@H](C)Cc3ccccc3)c2C1` [Compound 164], the IC50 is 0.001 to 0.01 µM.

Consider `COC(=O)N1CCc2ccc3c(nc(-c4ccc(C(=O)O)c(F)c4)n3[C@H](C)Cc3ccccc3)c2C1` [Compound 280], for which the IC50 lay within 0.01 to 0.1 µM.

For `COC(=O)N1CCc2ccc3c(nc(C4CCN(S(=O)(=O)NC(C)=O)CC4)n3[C@H](C)Cc3ccccc3)c2C1` [Compound 348], the IC50 was in the range of 1 to 1000 µM.

Take “(3S)-4-[2-cyclohexyl-8-(methoxycarbonyl)-3H,6H,7H,8H,9H-imidazo[4,5-h]isoquinolin-3-yl]-3-(3-fluoro-5-methoxyphenyl)butanoic acid [Compound 10]”: the IC50 was 0.001 to 0.01 µM.

Take `COC(=O)N1CCc2ccc3c(nc(C4CCN(C(=O)CO)CC4)n3[C@@H](C)Cc3ccccc3)c2C1` [Compound 106]: the half-inhibitory concentration (IC50) lay in the range of 0.001 to 0.01 µM.

As to `COC(=O)N1CCc2ccc3c(nc(C4CCCCC4)n3CC[C@@H]3CCC[C@@H](C(=O)O)C3)c2C1` [Compound 168], the IC50 fell in the range of 0.001 to 0.01 µM.

Turning to `COC(=O)N1CCc2ccc3c(nc(C4CCCCC4)n3C[C@H]3CC[C@@H](C(=O)O)CC3)c2C1` [Compound 221], the IC50 was in the range of 0.01 to 0.1 µM.

`COC(=O)N1CCc2ccc3c(nc(N4CCNCC4)n3[C@H](C)Cc3ccccc3)c2C1` [Compound 347]: the 50% inhibitory concentration (IC50) lay in the range of 1 to 1000 µM.

As to `COC(=O)N1CCc2ccc3c(nc(C4CCCCC4)n3[C@@H](CO)Cc3cccc(C(=O)O)c3)c2C1` [Compound 152], the concentration for half-maximal inhibition (IC50) fell in the range of 0.001 to 0.01 µM.

Source of the values: patent publication US20250188079A1, “INHIBITING CYCLIC AMP-RESPONSIVE ELEMENT-BINDING PROTEIN (CREB)” (Forma Therapeutics, Inc., priority 2019, published 2025).
